Measurements from ChEMBL document CHEMBL4177620, “A comparative study of warheads for design of cysteine protease inhibitors” (Bioorg Med Chem Lett, 2017).
Calls of active or inactive are those of the source. No cut-off for these calls is given here. Non-standard residues stand in square brackets, D forms with d. Residues, ends and D or L forms follow the SMILES beside them. *: point of attachment. Cbz = O=C(OCc1ccccc1)*; Ac3c = NC1(C(=O)O)CC1

Key:
[1] = biological target: Cruzipain (Trypanosoma cruzi) (UniProt P25779); experiment: Reversible inhibition of recombinant Trypanosoma cruzi cruzain using Z-phe-Arg-7-amido-4-methylcoumarin as substrate by fluorometric method
Cruzipain = Cruzipain (Trypanosoma cruzi, UniProt P25779); experiment: Inhibition of recombinant Trypanosoma cruzi cruzain using Z-phe-Arg-7-amido-4-methylcoumarin as substrate by fluorometric method
[2] = biological target: Cruzipain (Trypanosoma cruzi) (UniProt P25779); experiment: Inhibition of recombinant Trypanosoma cruzi cruzain assessed as dissociation rate constant using Z-phe-Arg-7-amido-4-methylcoumarin as substrate by fluorometric method
[3] = biological target: Cruzipain (Trypanosoma cruzi) (UniProt P25779); experiment: Irreversible inhibition of recombinant Trypanosoma cruzi cruzain using Z-phe-Arg-7-amido-4-methylcoumarin as substrate by fluorometric method
[4] = biological target: Cruzipain (Trypanosoma cruzi) (UniProt P25779); experiment: Ratio of Kinact to Ki for recombinant Trypanosoma cruzi cruzain using Z-phe-Arg-7-amido-4-methylcoumarin as substrate
[5] = Cytotoxicity against human U2OS cells; format: cell-based
Trypanosoma cruzi = experiment: Antitrypanosomal activity against amastigote form of Trypanosoma cruzi Y infected in human U2OS cells; format: functional, organism-based

Chain of Cruzipain (Trypanosoma cruzi) (P25779 123-467 limits assumed): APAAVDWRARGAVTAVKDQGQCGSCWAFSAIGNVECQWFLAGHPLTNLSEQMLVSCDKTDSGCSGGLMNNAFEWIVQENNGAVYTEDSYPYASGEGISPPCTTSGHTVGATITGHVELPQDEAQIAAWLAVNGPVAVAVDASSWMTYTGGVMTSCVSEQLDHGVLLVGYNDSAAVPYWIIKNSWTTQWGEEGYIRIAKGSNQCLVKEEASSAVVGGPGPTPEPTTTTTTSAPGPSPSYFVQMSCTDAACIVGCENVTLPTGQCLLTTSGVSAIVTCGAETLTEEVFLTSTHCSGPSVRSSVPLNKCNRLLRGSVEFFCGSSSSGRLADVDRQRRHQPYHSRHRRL
Chain of Cruzipain (P25779 whole entry): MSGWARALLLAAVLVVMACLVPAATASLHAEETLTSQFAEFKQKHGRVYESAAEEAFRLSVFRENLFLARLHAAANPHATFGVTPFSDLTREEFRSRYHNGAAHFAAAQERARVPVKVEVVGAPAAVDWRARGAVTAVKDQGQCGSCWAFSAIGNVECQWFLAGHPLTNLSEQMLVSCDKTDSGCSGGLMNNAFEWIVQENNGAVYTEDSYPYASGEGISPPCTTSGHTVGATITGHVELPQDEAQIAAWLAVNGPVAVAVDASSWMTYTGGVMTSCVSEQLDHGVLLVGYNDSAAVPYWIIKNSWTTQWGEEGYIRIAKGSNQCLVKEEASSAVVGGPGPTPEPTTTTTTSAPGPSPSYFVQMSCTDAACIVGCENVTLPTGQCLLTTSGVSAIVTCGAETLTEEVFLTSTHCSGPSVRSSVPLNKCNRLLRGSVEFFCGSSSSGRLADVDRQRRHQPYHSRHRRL

For `CNC(=O)/C=C/C1(NC(=O)[C@H](Cc2ccccc2)NC(=O)OCc2ccccc2)CC1`, the inhibition [1] was “Active” and the Ki (Cruzipain) was 398 µM.

For `CN(C#N)N(C)C(=O)[C@H](Cc1ccccc1)NC(=O)c1cc(C(C)(C)C)nn1C`, the Ki (Cruzipain) was 0.00158 µM and the koff [2] was 0.012 s⁻¹.

In the case of `CCOC(=O)/C=C/CNC(=O)[C@H](Cc1ccccc1)NC(=O)OCc1ccccc1`, the inhibition [3] is reported as “Active”, the Ratio [4] is reported as 9.8 ×10³ /s/M and the Ki (Cruzipain) is reported as 1.58 µM.

In the case of `CCOC(=O)/C=C\CNC(=O)[C@H](Cc1ccccc1)NC(=O)OCc1ccccc1`, the inhibition [1] is reported as “Active” and the Ki (Cruzipain) is reported as 6.31 µM.

For `Cc1coc(NC(=O)[C@H](Cc2ccccc2)NC(=O)OCc2ccccc2)n1`, the CC50 [5] was greater than 100 µM, the EC50 (Trypanosoma cruzi) was 39.8 µM and the Ki (Cruzipain) was 25.1 µM.

For `CCN(CC)C(=O)/C=C/C1(NC(=O)[C@H](Cc2ccccc2)NC(=O)OCc2ccccc2)CC1`, the inhibition [1] was “Active” and the Ki (Cruzipain) was 200 µM.

Work on `O=C(N[C@@H](Cc1ccccc1)C(=O)Nc1cnoc1)OCc1ccccc1` yielded a CC50 [5] greater than 100 µM, an EC50 (Trypanosoma cruzi) greater than 100 µM and a Ki (Cruzipain) of 10 µM.

In the case of `CN(C#N)N(C)C(=O)[C@H](Cc1ccccc1)NC(=O)OCc1ccccc1`, the CC50 [5] is reported as 10 µM, the inhibition [1] is reported as “Active” and the EC50 (Trypanosoma cruzi) is reported as 5.01 µM. It also gave a Ki (Cruzipain) of 0.002 µM and a koff [2] of 0.011 s⁻¹.

`O=CC1(NC(=O)[C@H](Cc2ccccc2)NC(=O)OCc2ccccc2)CC1` (Cbz-Phe-[Ac3c]-aldehyde) gave a Ki (Cruzipain) of 3.98 µM.

For `O=C(N[C@@H](Cc1ccccc1)C(=O)NCC=NO)OCc1ccccc1`, the inhibition [1] was “Active” and the Ki (Cruzipain) was 0.1 µM.

With `CCOC(=O)/C=C/C1(NC(=O)[C@H](Cc2ccccc2)NC(=O)OCc2ccccc2)CC1` the inhibition [1] was “Active” and the Ki (Cruzipain) was 126 µM.

`CC(C)C[C@H](NC(=O)c1cc(C(C)(C)C)nn1C)C(=O)N(C)N(C)C#N` gave an EC50 (Trypanosoma cruzi) of 12.6 µM.

For `CC(C)C[C@H](NC(=O)OC(C)(C)C)C(=O)N(C)N(C)C#N`, the CC50 [5] was 50.1 µM, the inhibition [1] was “Active” and the EC50 (Trypanosoma cruzi) was 39.8 µM. It also gave a Ki (Cruzipain) of 0.01 µM and a koff [2] of 0.0053 s⁻¹.

Work on `N#CC1(NC(=O)[C@H](Cc2ccccc2)NC(=O)OCc2ccccc2)CC1` yielded a CC50 [5] greater than 100 µM, an EC50 (Trypanosoma cruzi) greater than 100 µM and a Ki (Cruzipain) of 6.31 µM.

For `O=CCNC(=O)[C@H](Cc1ccccc1)NC(=O)OCc1ccccc1` (Cbz-Phe-Gly-aldehyde), the inhibition [1] was “Active” and the Ki (Cruzipain) was 0.00794 µM.

In the case of `N#CCNC(=O)[C@H](Cc1ccccc1)NC(=O)OCc1ccccc1`, the CC50 [5] is reported as greater than 100 µM, the inhibition [1] is reported as “Active” and the EC50 (Trypanosoma cruzi) is reported as greater than 100 µM.
